Assay results as given in publication PMC10002548, “Amorphous System of Hesperetin and Piperine—Improvement of Apparent Solubility, Permeability, and Biological Activities” (International Journal of Molecular Sciences, 2023).
Values after ≈ are worked out from the molar mass of the structure shown.

Assays:
[1] = Dissolution study (paddle apparatus); type: physicochemical; details: phosphate buffer pH 6.8, 37 °C, 50 rpm; raw compound value after one hour
Description: (§1) The injection volume differed depending on the assay. […] The method’s duration was 10 min.
(§2) Phosphate buffer at pH 6.8 was prepared according to the following description: in a 1000-mL volumetric flask, we placed 250 mL of 0.2 N potassium dihydrogen phosphate solution, then added 112 mL of 0.2 N sodium hydroxide solution, and filled the mixture up to 1000 mL with distilled water. High-quality pure water was prepared using a Direct-Q 3 UV purification system (Millipore, Molsheim, France, model Exil SA 67120).
The dissolution study was performed on the paddle apparatus. The amount of the compound and systems corresponding to 7.0 mg of each plant-origin active ingredient was added to the dissolution medium. The vessels were filled with 500 mL of phosphate buffer, pH 6.8; the temperature was maintained at 37 °C, and the paddles were set at a stirring speed of 50 rotations per minute. The 2.0 mL samples were withdrawn at predetermined time points with the replacement of equal volumes of temperature-equilibrated media.

physchem = type: physicochemical; details: for solubility thermodynamic at 3 h: pH 6.8, aqueous buffer, thermodynamic from solid
Description: as §1, §2
An excess amount of raw compounds and systems was placed in a 10 mL glass tube; then, 2.0 mL of phosphate buffer (pH 6.8) was added and left at room temperature for 3 h.

in vitro = in vitro ADME
Description: as §1
The sandwich consists of two 96-well microfilter plates.

[2] = PAMPA BBB permeability assay
Source text: For the stationary phase, a Dr. Maisch ReproSil-Pur Basic-C18 100 Å column with 5 µm particle size and 250 × 4.60 mm (Dr. Maisch, Ammerbuch-Entringen, Germany) was used. […] The mobile phase was vacuum-filtered through a 0.45 µm nylon filter (Phenomenex, Torrance, CA, USA). […] The injection volume differed depending on the assay.
The sandwich consists of two 96-well microfilter plates. The PAMPA systems contain two chambers: the donor chamber at the bottom and the acceptor chamber at the top. […] The plates were combined and then incubated for 3 h for both models in a humidity-saturated atmosphere with the temperature set at 37 °C. To assess the apparent permeability coefficient factor (Papp), 5.0 mg of raw compounds were dissolved in 1.0 mL of DMSO. Then, we followed the manufacturer’s guidelines for further performance in the assay. […] In the case of the studied systems, the solutions were first prepared in the same manner as in the solubility study. […] Next, the obtained solution was diluted 1:1 with donor solution for the GIT and BBB assays and placed in the donor compartment. The results were expressed as a concentration in the acceptor solution.

Compound	hesperetin dissolved (% of the dose added to the dissolution medium) [1] [%]	Hesperetin Conc. (physchem; 3 h, pH 6.8) [mg/mL]	solubility thermodynamic at 3 h (physchem) [µg/mL]	concentration of hesperetin in the acceptor part, PAMPA GIT (in vitro; 3 h, pH 6.8) [ng/mL]	Papp (in vitro; PAMPA, raw compound dissolved in DMSO, donor pH ≈ 6.8, 3 h, 37 °C, read-out: apparent permeability coefficient (Papp), PAMPA GIT) [×10⁻⁶ cm/s]	Papp at 3 h ([2]; PAMPA, pH 7.4) [×10⁻⁶ cm/s]	concentration of hesperetin in the acceptor part, PAMPA BBB ([2]; donor pH ≈ 7.4, 3 h, 37 °C) [ng/mL]	piperine dissolved (% of the dose added to the dissolution medium) [1] [%]	Piperine Conc. (physchem; 3 h, pH 6.8) [mg/mL]	concentration of piperine in the acceptor part, PAMPA GIT (in vitro; 3 h, pH 6.8) [µg/mL]	Papp at 3 h (in vitro; PAMPA, pH 6.8) [×10⁻⁶ cm/s]	concentration of piperine in the acceptor part, PAMPA BBB ([2]; PAMPA, 3 h, pH 7.4) [µg/mL]
COc1ccc([C@@H]2CC(=O)c3c(O)cc(O)cc3O2)cc1O [Hesperetin, hesperetin]	23.75 ± 2.99	0.005 ± 0.001	5 ± 1 (≈ 16.5 µM)	25.8 ± 6.16	2.59	7.05	38.9 ± 16.6	–	–	–	–	–
O=C(/C=C/C=C/c1ccc2c(c1)OCO2)N1CCCCC1 [Piperine, piperine]	–	–	6 ± 1 (≈ 21 µM)	–	–	40	–	27.79 ± 3.38	0.006 ± 0.001	2.01 ± 0.1	37.3	1.03 ± 0.104
